{
  "source": "PubChem BioAssay (NCI)",
  "experiment_in_all_cases": "NCI anticancer screen, dose series, 48 h",
  "key": {"[1]": {"system": "K-562 leukemia"}, "[2]": {"system": "SF-295 CNS"}, "[3]": {"system": "SN12C renal"}, "[4]": {"system": "A549 NSCLC"}, "[5]": {"system": "OVCAR-3 ovarian"}, "[6]": {"system": "SK-MEL-5 melanoma"}, "[7]": {"system": "OVCAR-5 ovarian"}, "[8]": {"system": "OVCAR-4 ovarian"}, "[9]": {"system": "HOP-92 NSCLC"}, "[10]": {"system": "CCRF-CEM leukemia"}},
  "note": "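Test compounds were applied to cells in 96-well plates for 48 hours at 5 doses. The concentration for full growth arrest is given as TGI.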",
  "data": [
    {"molecule": "COC(=O)C1=C(O)C(O)=C(C(=O)OC)C1", "values": [
      {"measurement": "TGI", "setting": "[1]", "value": "> 100", "unit": "µM"},
      {"measurement": "TGI", "setting": "[2]", "value": "> 100", "unit": "µM"},
      {"measurement": "TGI", "setting": "[3]", "value": "> 100", "unit": "µM"},
      {"measurement": "TGI", "setting": "[4]", "value": "> 100", "unit": "µM"},
      {"measurement": "TGI", "setting": "[5]", "value": "> 100", "unit": "µM"},
      {"measurement": "TGI", "setting": "[6]", "value": "> 100", "unit": "µM"},
      {"measurement": "TGI", "setting": "[7]", "value": "> 100", "unit": "µM"},
      {"measurement": "TGI", "setting": "[8]", "value": "> 100", "unit": "µM"},
      {"measurement": "TGI", "setting": "[9]", "value": "> 100", "unit": "µM"},
      {"measurement": "TGI", "setting": "[10]", "value": "> 100", "unit": "µM"}
    ]},
    {"molecule": "c1ccc(N=C2c3ccccc3C3=NCCCN32)cc1", "values": [
      {"measurement": "TGI", "setting": "[1]", "value": "> 100", "unit": "µM"},
      {"measurement": "TGI", "setting": "[2]", "value": "> 100", "unit": "µM"},
      {"measurement": "TGI", "setting": "[3]", "value": "> 100", "unit": "µM"},
      {"measurement": "TGI", "setting": "[4]", "value": "> 100", "unit": "µM"},
      {"measurement": "TGI", "setting": "[5]", "value": "> 100", "unit": "µM"},
      {"measurement": "TGI", "setting": "[6]", "value": 76.8, "unit": "µM"},
      {"measurement": "TGI", "setting": "[7]", "value": "> 100", "unit": "µM"},
      {"measurement": "TGI", "setting": "[8]", "value": "> 100", "unit": "µM"},
      {"measurement": "TGI", "setting": "[9]", "value": 72.2, "unit": "µM"},
      {"measurement": "TGI", "setting": "[10]", "value": "> 100", "unit": "µM"}
    ]}
  ]
}
